Assay results: patent US20240294534A1, “IMIDAZOTRIAZINE DERIVATIVES AS IL-17 MODULATORS” (UCB BIOPHARMA SRL, priority 2021, published 2024)

Target: T1, IL-17A (Homo sapiens, UniProt Q16552)
T1 sequence (Q16552 24-155): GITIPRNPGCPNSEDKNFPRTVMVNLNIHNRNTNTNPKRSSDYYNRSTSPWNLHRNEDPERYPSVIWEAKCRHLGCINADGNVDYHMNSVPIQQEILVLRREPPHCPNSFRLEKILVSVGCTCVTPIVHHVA
Assay: Inhibition of IL-17A induced IL-6 release from dermal fibroblast cell line (HDF cell line assay)
Assay type: cell-based
Conditions: human dermal fibroblasts stimulated with IL-17A (50 pM) + TNF-α (25 pM); IL-6 measured by HTRF; pIC50 = -log10[IC50], IC50 molar
Text: Inhibition of IL-17A Induced IL-6 Release from Dermal Fibroblast Cell Line
The purpose of this assay is to test the neutralising ability to IL-17 proteins, in a human primary cell system. Stimulation of normal human dermal fibroblasts (HDF) with IL-17 alone produces only a very weak signal but in combination with certain other cytokines, such as TNFα, a synergistic effect can be seen in the production of inflammatory cytokines, i.e. IL-6.
HDFs were stimulated with IL-17A (50 pM) in combination with TNF-α (25 pM). The resultant IL-6 response was then measured using a homogenous time-resolved FRET kit from Cisbio. The kit utilises two monoclonal antibodies, one labelled with Eu-Cryptate (Donor) and the second with d2 or XL665 (Acceptor). The intensity of the signal is proportional to the concentration of IL-6 present in the sample (Ratio is calculated by 665/620×104).
The ability of a compound to inhibit IL-17 induced IL-6 release from human dermal fibroblasts is measured in this assay.
HDF cells (Sigma #106-05n) were cultured in complete media (DMEM+10% FCS+2 mM L-glutamine) and maintained in a tissue culture flask using standard techniques. Cells were harvested from the tissue culture flask on the morning of the assay using TrypLE (Invitrogen #12605036). The TrypLE was neutralised using complete medium (45 mL) and the cells were centrifuged at 300×g for 3 minutes. The cells were re-suspended in complete media (5 mL) counted and adjusted to a concentration of 3.125×10^4 cells/mL before being added to the 384 well assay plate (Corning #3701) at 40 μL per well. The cells were left for a minimum of three hours, at 37° C./5% CO2, to adhere to the plate.
Compounds were serially diluted in DMSO before receiving an aqueous dilution into a 384 well dilution plate (Greiner #781281), where 5 μL from the titration plate was transferred to 45 μL of complete media and mixed to give a solution containing 10% DMSO.
Mixtures of TNFα and IL-17 cytokine were prepared in complete media to final concentrations of TNFα 25 pM/IL-17A 50 pM, then 30 μL of the solution was added to a 384 well reagent plate (Greiner #781281).
10 μL from the aqueous dilution plate was transferred to the reagent plate containing 30 μL of the diluted cytokines, to give a 2.5% DMSO solution. The compounds were incubated with the cytokine mixtures for 5 h at 37° C. After the incubation, 10 μL was transferred to the assay plate, to give a 0.5% DMSO solution, then incubated for 18-20 h at 37° C./5% CO2.
From the Cisbio IL-6 FRET kit (Cisbio #62IL6PEB) europium cryptate and Alexa 665 were diluted in reconstitution buffer and mixed 1:1, as per kit insert. To a white low volume 384 well plate (Greiner #784075) were added FRET reagents (10 μL), then supernatant (10 μL) was transferred from the assay plate to Greiner reagent plate. The mixture was incubated at room temperature for 3 h with gentle shaking (<400 rpm) before being read on a Synergy Neo 2 plate reader (Excitation: 330 nm; Emission: […]).

Compound	IC50
Cc1nonc1C(=O)N[C@H](c1cn2ncc([C@@H]3C[C@@](O)(C(F)(F)F)CCN3C(=O)C34CC(F)(C3)C4)nc2n1)C(C1CC1)C1CC1 (single isomer, unassigned) [Example 1]	7.94 nM
Cc1nonc1C(=O)N[C@H](c1cn2ncc([C@H]3C[C@](O)(C(F)(F)F)CCN3C(=O)C34CC(F)(C3)C4)nc2n1)C(C1CC1)C1CC1 (single isomer, unassigned) [Example 2]	158 nM
Cc1nonc1C(=O)N[C@H](c1cn2ncc([C@H]3COCCN3C(=O)C34CC(F)(C3)C4)nc2n1)C1CCC(F)(F)CC1 (single isomer, unassigned) [Example 4]	631 nM
Cc1nonc1C(=O)N[C@H](c1cn2ncc([C@H]3COCCN3C(=O)[C@@H]3CCC(F)(F)CO3)nc2n1)C(C1CC1)C1CC1 (single isomer, unassigned) [Example 6]	100 nM
Cc1nonc1C(=O)N[C@H](c1cn2ncc([C@@H]3COCCN3C(=O)[C@@H]3CCC(F)(F)CO3)nc2n1)C1CCC(F)(F)CC1 (single isomer, unassigned) [Example 7]	6.31 nM
Cc1nonc1C(=O)NC(c1cn2ncc(C3COCCN3C(=O)C3CCC(F)(F)CO3)nc2n1)C1CCC(F)(F)CC1 (single isomer, unassigned) [Example 8]	126 nM
O=C(N[C@H](c1cn2ncc([C@@H]3C[C@@](O)(C(F)(F)F)CCN3C(=O)C34CC(F)(C3)C4)nc2n1)C1CCC(F)(F)CC1)C1(F)CC1 (single isomer, unassigned) [Example 11]	50.1 nM
O=C(N[C@H](c1cn2ncc([C@H]3C[C@](O)(C(F)(F)F)CCN3C(=O)C34CC(F)(C3)C4)nc2n1)C1CCC(F)(F)CC1)C1(F)CC1 (single isomer, unassigned) [Example 12]	7940 nM
Cc1nonc1C(=O)N[C@H](c1cn2ncc([C@@H]3C[C@@](O)(C(F)(F)F)CCN3C(=O)[C@@H]3CCC(F)(F)CO3)nc2n1)C1CCC(F)(F)CC1 (single isomer, unassigned) [Example 18]	2.51 nM
O=C([C@@H]1CCC(F)(F)CO1)N1CC[C@](O)(C(F)(F)F)C[C@H]1c1cnn2cc([C@@H](NC(=O)C3(F)CC3)C3CCC(F)(F)CC3)nc2n1 (single isomer, unassigned) [Example 20]	15.8 nM
O=C([C@@H]1CCC(F)(F)CO1)N1CC[C@@](O)(C(F)(F)F)C[C@@H]1c1cnn2cc([C@@H](NC(=O)C3(F)CC3)C3CCC(F)(F)CC3)nc2n1 (single isomer, unassigned) [Example 21]	398 nM
Cc1nonc1C(=O)N[C@H](c1cn2ncc([C@@H]3C[C@@](O)(C(F)F)CCN3C(=O)[C@@H]3CCC(F)(F)CO3)nc2n1)C1CCC(F)(F)CC1 (single isomer, unassigned) [Example 22]	6.31 nM
Cc1nonc1C(=O)N[C@H](c1cn2ncc([C@H]3C[C@](O)(C(F)F)CCN3C(=O)[C@@H]3CCC(F)(F)CO3)nc2n1)C1CCC(F)(F)CC1 (single isomer, unassigned) [Example 23]	158 nM
Cc1nonc1C(=O)N[C@H](c1cn2ncc([C@@H]3COCCN3C(=O)[C@@H]3CCC(F)(F)CO3)nc2n1)[C@H]1CC[C@H](C(F)(F)F)CC1 (single isomer, unassigned) [Example 25]	316 nM
Cc1nonc1C(=O)N[C@H](c1cn2ncc([C@@H]3C[C@@](O)(C(F)F)CCN3C(=O)C34CC(F)(C3)C4)nc2n1)C1CCC(F)(F)CC1 (single isomer, unassigned) [Example 26]	10 nM
Cc1nonc1C(=O)N[C@H](c1cn2ncc([C@H]3C[C@](O)(C(F)F)CCN3C(=O)C34CC(F)(C3)C4)nc2n1)C1CCC(F)(F)CC1 (single isomer, unassigned) [Example 27]	251 nM
Cc1nonc1C(=O)N[C@H](c1cn2ncc([C@H]3C[C@@](O)(C(F)F)CCN3C(=O)C34CC(F)(C3)C4)nc2n1)C1CCC(F)(F)CC1 (single isomer, unassigned) [Example 29]	631 nM
Cc1nonc1C(=O)N[C@H](c1cn2ncc([C@@H]3C[C@](O)(C(F)F)CCN3C(=O)[C@@H]3CCC(F)(F)CO3)nc2n1)C1CCC(F)(F)CC1 (single isomer, unassigned) [Example 30]	12.6 nM
Cc1nonc1C(=O)N[C@H](c1cn2ncc([C@H]3C[C@@](O)(C(F)(F)F)CCN3C(=O)C34CC(F)(C3)C4)nc2n1)C1CCC(F)(F)CC1 (single isomer, unassigned) [Example 33]	126 nM
Cc1nonc1C(=O)N[C@H](c1cn2ncc([C@@H]3C[C@](C)(O)CCN3C(=O)[C@@H]3CCC(F)(F)CO3)nc2n1)C1CCC(F)(F)CC1 (single isomer, unassigned) [Example 34]	3.98 nM
Cc1nonc1C(=O)N[C@H](c1cn2ncc([C@H]3C[C@@](C)(O)CCN3C(=O)[C@@H]3CCC(F)(F)CO3)nc2n1)C1CCC(F)(F)CC1 (single isomer, unassigned) [Example 35]	126 nM
Cc1nonc1C(=O)N[C@H](c1cn2ncc([C@@H]3C[C@](C)(O)CCN3C(=O)C34CC(F)(C3)C4)nc2n1)C1CCC(F)(F)CC1 (single isomer, unassigned) [Example 36]	12.6 nM
Cc1nonc1C(=O)N[C@H](c1cn2ncc([C@H]3C[C@@](C)(O)CCN3C(=O)C34CC(F)(C3)C4)nc2n1)C1CCC(F)(F)CC1 (single isomer, unassigned) [Example 37]	794 nM

Continued by falling IC50, values first:

IC50	Compound
501 nM	Cc1nonc1C(=O)N[C@H](c1cn2ncc([C@H]3C[C@](O)(C(F)(F)F)CCN3C(=O)C34CC(F)(C3)C4)nc2n1)C1CCC(F)(F)CC1 (single isomer, unassigned) [Example 10]
126 nM	Cc1nonc1C(=O)N[C@H](c1cn2ncc([C@@H]3C[C@@](C)(O)CCN3C(=O)[C@@H]3CCC(F)(F)CO3)nc2n1)C1CCC(F)(F)CC1 (single isomer, unassigned) [Example 38]
100 nM	Cc1nonc1C(=O)N[C@H](c1cn2ncc([C@H]3C[C@](O)(C(F)(F)F)CCN3C(=O)[C@@H]3CCC(F)(F)CO3)nc2n1)C1CCC(F)(F)CC1 (single isomer, unassigned) [Example 19]
79.4 nM	Cc1nonc1C(=O)N[C@H](c1cn2ncc([C@@H]3COCCN3C(=O)C34CC(F)(C3)C4)nc2n1)C1CCC(F)(F)CC1 (single isomer, unassigned) [Example 3]
63.1 nM	Cc1nonc1C(=O)N[C@H](c1cn2ncc([C@@H]3C[C@](O)(C(F)(F)F)CCN3C(=O)C34CC(F)(C3)C4)nc2n1)C1CCC(F)(F)CC1 (single isomer, unassigned) [Example 32]
39.8 nM	Cc1nonc1C(=O)N[C@H](c1cn2ncc([C@@H]3C[C@](O)(C(F)F)CCN3C(=O)C34CC(F)(C3)C4)nc2n1)C1CCC(F)(F)CC1 (single isomer, unassigned) [Example 28]
15.8 nM	Cc1nonc1C(=O)N[C@H](c1cn2ncc([C@H]3C[C@@](O)(C(F)F)CCN3C(=O)[C@@H]3CCC(F)(F)CO3)nc2n1)C1CCC(F)(F)CC1 (single isomer, unassigned) [Example 31]
10 nM	Cc1nonc1C(=O)N[C@H](c1cn2ncc([C@@H]3COCCN3C(=O)[C@@H]3CCC(F)(F)CO3)nc2n1)[C@H]1CC[C@H](C(F)(F)F)CC1 (single isomer, unassigned) [Example 24]
6.31 nM	Cc1nonc1C(=O)N[C@H](c1cn2ncc([C@@H]3C[C@@](O)(C(F)(F)F)CCN3C(=O)C34CC(F)(C3)C4)nc2n1)C1CCC(F)(F)CC1 (single isomer, unassigned) [Example 9]
5.01 nM	Cc1nonc1C(=O)N[C@H](c1cn2ncc([C@H]3C[C@](C)(O)CCN3C(=O)[C@@H]3CCC(F)(F)CO3)nc2n1)C1CCC(F)(F)CC1 (single isomer, unassigned) [Example 39]
3.98 nM	Cc1nonc1C(=O)N[C@H](c1cn2ncc([C@@H]3COCCN3C(=O)[C@@H]3CCC(F)(F)CO3)nc2n1)C(C1CC1)C1CC1 (single isomer, unassigned) [Example 5]
